Assay results: a melting point compilation (Tetko et al.; mined from patent text by program, amines drawn as free bases though some values may be those of a salt)

| SMILES | melting point |
| --- | --- |
| N#Cc1ccc(CC23CCCN2C(=O)N(Cc2cc(Cl)cc(Cl)c2)C3=O)cc1 (stereo not drawn) | 124 °C |
| O=C(NCCn1ccnc1)c1cc2cc(Cl)ccc2[nH]1 | 167 to 169 °C |
| Cc1cc(C)cc(S(=O)(=O)c2ccc(N)cc2)c1 | 178 to 179 °C |
| Nc1nc2cccnc2c2c1nc(CCO)n2CC1(O)CCOCC1 | 226 to 227 °C |
| COc1ccc(S(=O)(=O)C2(C(=O)O)CCN(Cc3ccc(Br)cc3)CC2)cc1 | 215 °C |
| CC(=O)OCCOC(C)n1cc(F)c(=O)[nH]c1=O (stereo not drawn) | 121 to 122 °C |
| COC(=O)C(NC(C)=O)C(=O)OCCBr (stereo not drawn) | 84 to 85 °C |
| CN(C)n1nnc2cc3c(cc2c1=O)OC1CCCN1C3=O (stereo not drawn) | 180 °C |
| CC(C)C(C)NC1=Nc2ccc(Cl)cc2S(=O)(=O)N1C (stereo not drawn) | 102 to 105 °C |
| Cc1noc(C=Cc2ccccc2O)n1 | 184 to 186 °C |
| O=C1CCCC2=C1C(c1ccc(S(=O)(=O)c3ccccc3)cc1)C1=C(CCCC1=O)N2 | 260 °C |
| Cc1cnc2nc(S(=O)(=O)Cl)nn2c1 | 106 to 108 °C |
| CNC(=O)CNC(=S)c1cccnc1 | 135 to 137 °C |
| Cn1cc(C=O)c(-c2ccoc2)n1 | 77 to 78 °C |
| CCOC(=O)c1ocnc1C | 31 to 33 °C |
| CCOC(=O)C=C(C)c1ccc(-c2ccc(F)cc2F)cc1 | 54 to 56 °C |
| CCNC(=O)c1cnc(SC)nc1Nc1ccc2[nH]ncc2c1 | 252 to 254 °C |
| COc1ccc2c(c1)CN(Nc1ccncc1)CC2 | 188 to 189 °C |
| CS(=O)(=O)Nc1ccnn1-c1ncc(Cl)cc1Cl | 52 to 54 °C |
| CCCCCCCCn1nc(C)c(N=Nc2c(O)cc(S(=O)(=O)N(CC)CC)c3ccccc23)c1O | 122 to 123 °C |
| CO[C@]1(c2csc(Sc3ccc4c(c3)CC/C4=N\O)c2)CCO[C@@H]1C (racemic) | 140 to 142 °C |
| COC1(c2ccc(C)cc2)CCC(=O)CC1 | 76 to 76.5 °C |

| SMILES | melting point |
| --- | --- |
| CC1Nc2ccc3c(c2N1C)OC(CN1CC=C(c2c[nH]c4ccccc24)CC1)CO3 (stereo not drawn) | 186 to 188 °C |
| COc1cc2c(cc1Cl)C(O)Cc1ccccc1S2 (stereo not drawn) | 130 to 132 °C |
| CS(=O)(=O)c1ccc(-c2cc(CCCO[N+](=O)[O-])nn2CC2CCCCC2)cc1 | 76 to 77 °C |
| CCN1C(=O)CCCc2c(OC)ccc(Nc3ncc(Cl)c(Nc4ccc(N5CCOCC5)cc4OC)n3)c21 | 218 to 220 °C |
| COc1cc(OC)cc(C(C)CCCc2ccncc2)c1 (stereo not drawn) | 131 to 133 °C |
| Clc1ccc(C2=NOCCS2)cc1 | 80.5 to 81.5 °C |
| N#Cc1cccc(C2=Nc3cc(O)c(-c4ccc(F)cc4)cc3NC(=O)C2)c1 | > 250 °C |
| O=C(O)c1cn(-c2ccc(F)cc2F)c2cc(N3CCC4(C3)OCCCO4)c(F)cc2c1=O | 168 to 170 °C |
| Cc1cccc(NC(=O)c2cc(C#N)cc(C)n2)c1 | 160 °C |
| CCCCCCCCCCCCCCCC(=O)NC(CCCCCCCCCCCCCCC)CC(=O)NCCC(=O)NC(Cc1ccccc1)C(=O)O (stereo not drawn) | 169 to 174 °C |
| N#Cc1c(Cl)c(Cl)n(O)c1-c1ccc(Cl)cc1 | 156 °C |
| COc1ccc(Br)cc1S(=O)(=O)NCCCl | 150 °C |
| N#Cc1cc(C#N)cc(Oc2ccnc(Oc3cc(Cl)cc(Cl)c3)n2)c1 | 196 °C |
| COc1cc(OCCOc2ccc(C(=O)C(=O)O)cc2)cc(OC)c1OC | 118 to 119 °C |
| CCn1nc(Cl)c2ccn(-c3ccc(C)cc3C)c2c1=O | 94 to 95 °C |
| CCCCOc1nc(N)c2nc(OC)n(CCSc3cccc(CC(=O)O)c3)c2n1 | 205 to 207 °C |
| CSCC(=O)c1cc(C(C)(C)C)c(O)c(C(C)(C)C)c1 | 108 to 110 °C |
| OCc1nc(-c2cccs2)cs1 | 113 to 114 °C |
| Cc1cccc(CN2C(=O)C3(COc4cc5c(cc43)OCCO5)c3ccccc32)n1 (stereo not drawn) | 183 to 185 °C |
| COc1ccc(Nc2c(C#N)cnc3cc(OC)c(OC)cc23)cc1O | 254 to 256 °C |
| Cc1nc2c(N)nc3ccccc3c2n1CCOCCN | 155 to 157 °C |
| O=CCC(F)(F)CN1C(=O)c2ccccc2C1=O | 76 to 78 °C |

| SMILES | melting point |
| --- | --- |
| COc1nc2cc(Cl)ccc2n2cnnc12 | 250 to 252 °C |
| CSc1nsc(-c2ccccc2)n1 | 57.1 °C |
| NC(CF)C(=O)c1ccccc1 (stereo not drawn) | 40 to 42 °C |
| COc1ccc(-c2cccs2)c2c(OC)ccc(-c3cccs3)c12 | 216 to 218 °C |
| NC(=O)c1cc2c(Oc3ccc(Cl)cc3)c[nH]c(=O)c2s1 | > 250 °C |
| COCCn1c(C)c(C(=O)c2c(Cl)c(Cl)c(Cl)c(Cl)c2C(=O)O)c2ccccc21 | 182 to 184 °C |
| CCCNc1nc(C#N)c(C#N)nc1CC(C)C | 107 to 110 °C |
| CCCCCC(O)CCCC(CCCCCCC(=O)O)S(C)(=O)=O (stereo not drawn) | 47 to 48 °C |
| COc1ccc2c(c1)C(=O)N(CCN(C)CCN1C(=O)c3cc(OC)c(OC)cc3C(C)(C)C1=O)C(=O)C2(C)C | 118 to 120 °C |
| CC1C(=O)NC(=O)NC1=O | 200 to 215 °C |
| c1ccc2c(OCC3CO3)c(OCC3CO3)ccc2c1 (stereo not drawn) | 131 to 133 °C |
| CC(Cc1sc2ccc(Cl)cc2c1Cl)=NO | 133 to 138 °C |
| CCOC(=O)c1cn(C2Cc3cc(F)ccc3C2=O)c(C(=O)OCC)n1 (stereo not drawn) | 138 °C |
| Cc1ccc(S(=O)(=O)Nc2ccc(N)c([N+](=O)[O-])c2)cc1 | 146 °C |
| CCn1c(=O)c(-n2c(C(N)=O)nnc2-c2ccc(C#N)cc2)c(C)n(-c2cccc(C(F)(F)F)c2)c1=O | 256 °C |
| CN(C)Cc1ccc2c(c1)c(C1CCN(CCN3CCNC3=O)CC1)cn2-c1ccc(F)cc1 | 166 to 174 °C |
| CC12CCCc3cc(Nc4ccc(C(=O)O)cc4)cc(c31)CCC2 | 232 to 234 °C |
| CC(=O)c1ccc(OCCCN2CCC(c3noc4cc(F)ccc34)CC2)c(O)c1 | 122 to 124 °C |
| CCc1c(COC(C)=O)nc(-c2ccc(OC)c(OC)c2)c2cc(OC)c(OC)cc12 | 129 to 131 °C |
| CCCC12CCC(=O)C=C1c1c(cc(OC)c(Cl)c1Cl)C2=O (stereo not drawn) | 167 to 169 °C |

The remaining lines, values ahead:

| melting point | SMILES |
| --- | --- |
| 135 to 137 °C | Cc1ccc(NC(=O)NCC2(c3ccccc3)CCCCC2)cc1 |
| 101 to 103 °C | CCOC(=O)c1c(-c2ccccc2)cn2ccccc12 |
| 158 to 165 °C | COC(=O)C(=CC(=CN(C)C)c1cc(OCc2ccccc2)ccc1[N+](=O)[O-])[N+](=O)[O-] |
| 269 to 272 °C | O=C(O)COc1c(-c2ccccc2)c(=O)[nH]c2cc(Cl)ccc12 |
| 80 to 85 °C | COC(=O)C(=CNc1cc(-c2ccccc2Cl)sc1C(=O)O)SC |
| 140 to 142 °C | CNS(=O)(=O)N1C[C@H](SC(c2ccccc2)(c2ccccc2)c2ccccc2)C[C@H]1COCc1ccccc1 |
| 158 to 160 °C | COc1cc(Cc2nccc3c(OCc4ccccc4)cc(OCc4ccccc4)cc23)cc(OC)c1OC |
| 241 to 243 °C | O=c1[nH]c2ccccc2cc1-c1csc(-c2ccncc2)n1 |
| 195 to 198 °C | Cc1nc2cccc(OCC(C)(C)NC(=O)c3ccncc3)c2c(N)c1C(=O)O |
| 105 to 106 °C | COC(=O)[C@H]1C=C(c2ccccc2)OC(=O)[C@H]1Cc1ccccc1 |
| 173 to 176 °C | CC(=O)NNC(=O)N(O)C1c2ccccc2Oc2ccccc21 |
| 143 °C | [N-]=[N+]=NCCc1cccc2[nH]cc(S(=O)(=O)c3ccccc3)c12 |
| 139 to 140 °C | CC(C)(C)OC(=O)CN1CCN(c2ccnc(C#N)c2)C1=O |
| 159 to 160 °C | Clc1ccc2nc(Cl)nc(-c3ccccc3)c2c1 |
| 134 to 136 °C | Cc1cc(NCC(=O)N(C)c2ccccc2)nc(-c2ccccc2)n1 |
| 62 to 63 °C | C=C(CN(Cc1ccccc1)Cc1ccccc1)C(=O)OC(C)(C)C |
| 153 to 154 °C | Cc1ccc(S(=O)(=O)N2CCC(c3ccccc3)CC2)cc1 |
| 199 to 203 °C | C=CCc1cc2c(cc1O)CCC(=O)N2CC=Cc1ccccc1 |
| 146 to 148 °C | COc1ccc(-c2nc3ccc(C(C)(C)CNS(C)(=O)=O)cc3[nH]2)cc1 |
| 115 to 117 °C | COc1ccc2c(C=O)c(OCc3ccccc3)ccc2c1 |

| melting point | SMILES |
| --- | --- |
| 165 to 167 °C | COc1cccc(F)c1-c1ccc(NC(=O)OC(C)(C)C)c(N)c1 |
| 158 °C | CCOC(=O)c1cnc2c(OC)nccc2c1Nc1ccccc1C |
| 189 to 191 °C | O=C(NC1CCCCC1)c1ccc(Cn2cnc3ccccc32)cc1 |
| 179 to 181 °C | O=C(CC(=O)c1ccc(O)cc1O)c1cc(OCc2ccccc2)cc(OCc2ccccc2)c1 |
| 136 to 138 °C | O=C(c1cccc(OCc2ccccc2)c1)C(CCc1nnn[nH]1)c1ccccc1 (stereo not drawn) |
| 34 °C | CCOC(=O)c1ccc(NC2CCCc3ccccc32)cc1 (stereo not drawn) |
| 90 to 92 °C | O=C1C[C@@H]2CCC(c3ccccc3)=C[C@@H]2O1 (relative stereo) |
| 148 to 150 °C | CCCCc1nc(Cl)c(C(=O)O)n1Cc1ccc2oc(-c3ccccc3C(=O)OCC)c(Br)c2c1 |
| 190 to 191 °C | Nc1nc(-c2ccccc2)nc2cccc(Oc3ccccc3)c12 |
| 220 to 221 °C | O=C(O)Cn1c(=S)c2ccccc2n(Cc2ccc(Cl)cc2Cl)c1=O |
| 205 °C | O=C(C=Cc1ccc(COc2ccccc2)cc1)NC(Cc1ccccc1)C(=O)O (stereo not drawn) |
| 145 to 147 °C | O=C(O)COc1ccc(SCc2ccc(OCc3ccccc3)cc2)c2c1CCC2 |
| 163 to 165 °C | CN(C)C(=O)CCNC(=O)c1ccc(-c2ccc3nnn(Cc4ccc5ncccc5c4)c3n2)cc1F |
| 105 °C | OCC(CO)(Cc1ccccc1)Cc1ccccc1 |
| 47 to 47.5 °C | CCCCOc1cc(C)c(N=Nc2ccccc2)c(C)c1 |
| 47 to 49 °C | CC=C1C(=O)c2ccccc2OC1c1ccccc1 (stereo not drawn) |
| 99 to 100 °C | CC(NC(=S)NC(COC(=O)C(C)(C)C)Cc1ccccc1)c1ccc([N+](=O)[O-])cc1 (stereo not drawn) |
| 236 to 238 °C | Cc1ccnc2c1nc(-c1cccnc1N)n2-c1ccc(CC(=O)Nc2ccccc2)cc1 |
| 132 °C | CCN(CC)C(=O)C(C)c1cc(-c2ccccc2)nc2ccccc12 (stereo not drawn) |
